Experimental findings from US4455290A, “Inhibition of fibrin polymerization by a peptide isolated from fibrin Fragment D1” (Research Corporation, priority 1981, dated 1984) are described below.

One series deals with T1, thrombin fibrin monomer (Homo sapiens, UniProt P02671+P02675+P02679).
T1 construct: Thrombin cleaves the bonds Aα16 Arg-17 Gly and Bβ14 Arg-15 Gly, releasing two molecules of fibrinopeptide A and two molecules of fibrinopeptide B; made in house; host or cells: not recombinant: made from fibrinogen by treatment with thrombin
T1 sequence (P02671 36-629 isoform P02671-2): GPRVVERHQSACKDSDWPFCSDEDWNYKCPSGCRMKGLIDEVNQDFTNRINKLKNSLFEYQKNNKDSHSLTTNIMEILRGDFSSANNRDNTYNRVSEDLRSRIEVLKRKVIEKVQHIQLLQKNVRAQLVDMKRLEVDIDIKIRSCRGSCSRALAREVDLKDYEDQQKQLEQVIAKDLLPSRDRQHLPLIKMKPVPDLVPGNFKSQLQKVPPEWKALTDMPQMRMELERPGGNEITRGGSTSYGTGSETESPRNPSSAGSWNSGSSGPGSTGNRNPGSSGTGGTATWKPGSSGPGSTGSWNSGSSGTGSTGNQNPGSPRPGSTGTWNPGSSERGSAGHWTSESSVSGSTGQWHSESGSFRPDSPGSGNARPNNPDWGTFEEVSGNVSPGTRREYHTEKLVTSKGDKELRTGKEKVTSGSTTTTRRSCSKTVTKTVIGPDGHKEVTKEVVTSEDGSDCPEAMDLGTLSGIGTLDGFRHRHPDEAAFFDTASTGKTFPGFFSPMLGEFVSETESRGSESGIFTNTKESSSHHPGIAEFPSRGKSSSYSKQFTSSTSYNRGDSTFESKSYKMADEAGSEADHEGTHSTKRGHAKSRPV
T1 sequence (P02675 45-491): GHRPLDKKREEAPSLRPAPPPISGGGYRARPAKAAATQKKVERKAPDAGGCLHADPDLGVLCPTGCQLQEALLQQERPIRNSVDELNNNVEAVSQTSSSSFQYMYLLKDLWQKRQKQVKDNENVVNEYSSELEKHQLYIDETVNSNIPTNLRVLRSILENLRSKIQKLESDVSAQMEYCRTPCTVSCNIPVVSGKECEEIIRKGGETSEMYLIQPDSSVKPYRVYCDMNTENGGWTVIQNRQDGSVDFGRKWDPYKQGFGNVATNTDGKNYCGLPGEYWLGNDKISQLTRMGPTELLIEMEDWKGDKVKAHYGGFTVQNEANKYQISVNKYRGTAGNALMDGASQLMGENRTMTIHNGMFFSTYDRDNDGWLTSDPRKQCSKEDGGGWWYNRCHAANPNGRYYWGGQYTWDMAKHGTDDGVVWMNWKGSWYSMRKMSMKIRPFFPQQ
T1 sequence (P02679 27-437 isoform P02679-2): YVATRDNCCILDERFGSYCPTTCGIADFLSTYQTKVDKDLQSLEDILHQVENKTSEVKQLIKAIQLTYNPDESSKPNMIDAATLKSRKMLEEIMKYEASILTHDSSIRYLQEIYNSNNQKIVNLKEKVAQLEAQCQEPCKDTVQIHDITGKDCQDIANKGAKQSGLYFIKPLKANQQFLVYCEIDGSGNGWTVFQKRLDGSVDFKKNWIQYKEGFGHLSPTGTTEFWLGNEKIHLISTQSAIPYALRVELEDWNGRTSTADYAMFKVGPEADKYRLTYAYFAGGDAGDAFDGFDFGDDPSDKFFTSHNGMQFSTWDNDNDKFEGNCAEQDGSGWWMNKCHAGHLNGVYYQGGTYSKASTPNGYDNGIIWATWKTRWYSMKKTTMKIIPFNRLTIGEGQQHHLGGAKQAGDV
The series is described as follows: Inhibition of fibrin monomer polymerization (absorbance at 350 nm), thrombin fibrin monomer. Type of series: biochemical. To be noted: molar excess of D1 Peptide to fibrin monomer of 100-1000 fold; Sephadex gel equilibrium system; kind of fibrin monomer not stated. How it is done:
Fibrin monomer was prepared according to the method of Belitser et al, Biochem. Biophys. Acta 154, 367-375 (1968) using either thrombin or batroxobin (an enzyme from the venom of Bothrops atrox). The polymerization of fibrin monomer which was formed by batroxobin (lacking fibrinopeptide A) or by thrombin (lacking fibrinopeptides A and B) was inhibited by D1 Peptide. Polymerization was measured spectrophotometrically at 350 nm as has been described in Budzynski, Biochem. Biophys. Acta 584, 284-287 (1979). […] At zero time the recorder was started and 0.01 ml of fibrin monomer (1.5 mg/ml in 0.02M acetic acid) was added, the cells were inverted, and the increase in absorbance at 350 nm was measured continuously for 15 min or until plateau levels were reached. For batroxobin fibrin monomer 0.15 ml of buffer or buffer containing D1 Peptide was mixed with 0.05 ml of batroxobin fibrin monomer (1.5 mg/ml in 0.02M acetic acid). The initial rate of polymerization was calculated from the slope of the steepest part of the curve and expressed as the increase in absorbance per min (A350 ·min^-1).

Series [1] addresses T2, batroxobin fibrin monomer (Homo sapiens, UniProt P02671+P02675+P02679).
T2 construct: fibrin monomer which was formed by batroxobin (lacking fibrinopeptide A); made in house; host or cells: not recombinant: made from fibrinogen by treatment with batroxobin (Bothrops atrox venom enzyme)
T2 sequence (P02671 36-629 isoform P02671-2): T1 sequence (P02671 36-629 isoform P02671-2)
T2 sequence (P02675 31-491): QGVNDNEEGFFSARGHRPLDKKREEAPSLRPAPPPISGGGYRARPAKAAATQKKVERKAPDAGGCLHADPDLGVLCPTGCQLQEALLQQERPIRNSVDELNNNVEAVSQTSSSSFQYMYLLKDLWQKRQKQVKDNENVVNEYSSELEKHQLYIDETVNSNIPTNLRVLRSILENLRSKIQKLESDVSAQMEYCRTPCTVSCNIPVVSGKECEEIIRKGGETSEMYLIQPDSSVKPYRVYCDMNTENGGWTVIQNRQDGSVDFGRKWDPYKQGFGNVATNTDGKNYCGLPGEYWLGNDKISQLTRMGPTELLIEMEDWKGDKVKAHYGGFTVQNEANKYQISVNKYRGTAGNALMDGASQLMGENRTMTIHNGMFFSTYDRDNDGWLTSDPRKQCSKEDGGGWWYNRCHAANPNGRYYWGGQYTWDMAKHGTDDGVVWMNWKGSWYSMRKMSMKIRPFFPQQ
T2 sequence (P02679 27-437 isoform P02679-2): T1 sequence (P02679 27-437 isoform P02679-2)
As to the kind of experiment: Sephadex gel equilibrium binding, batroxobin fibrin monomer. The settings on record: 17 experiments, mean and standard deviation. On the procedure: Acta 133, 376-379 (1979).
The purification of NDSK involves incubation of fibrinogen in cyanogen bromide in the presence of 70% formic acid. This treatment may alter the binding sites. Therefore, an attempt was made to reproduce the data using fibrin monomer instead of thrombin-treated NDSK. A major difficulty, the self-polymerization of fibrin monomer, was overcome by using high molar ratios of D1 Peptide to fibrin monomer. However, in this situation the concentration of D1 Peptide could be varied only over a small range of concentrations. D1 Peptide was added to the Sephadex gel equilibrium system and incubated for 10 min., then soluble fibrin monomer was added in a molar excess of D1 Peptide to fibrin monomer of 100-1000 fold. Under these conditions the lag time in the fibrin monomer polymerization was more than 30 min.
In experiments using thrombin fibrin monomer the number of binding sites for D1 Peptide was 1.82±0.26 (15 experiments, mean and standard deviation). For batroxobin fibrin monomer the number of binding sites was 1.91±0.24 (17 experiments, mean and standard deviation).

Series [2] in a line: Elimination from the blood. Type of series: in vivo. The settings on record: no method described.

Peptide text beside a SMILES is read from it.

As for `CC[C@H](C)[C@H](NC(=O)[C@H](CCCCN)NC(=O)[C@H](CCSC)NC(=O)[C@@H](NC(=O)[C@@H](NC(=O)[C@H](CCCCN)NC(=O)[C@H](CCCCN)NC(=O)[C@H](CCSC)NC(=O)[C@H](CO)NC(=O)[C@H](Cc1ccc(O)cc1)NC(=O)[C@H](Cc1c[nH]c2ccccc12)NC(=O)[C@H](CCCNC(=N)N)NC(=O)[C@@H](N)[C@@H](C)O)[C@@H](C)O)[C@@H](C)O)C(=O)N[C@H](C(=O)N1CCC[C@H]1C(=O)N[C@@H](Cc1ccccc1)C(=O)N[C@@H](CC(N)=O)C(=O)N[C@@H](CCCNC(=N)N)C(=O)N[C@@H](CC(C)C)C(=O)N[C@H](C(=O)N[C@H](C(=O)NCC(=O)N[C@@H](CCC(=O)O)C(=O)NCC(=O)N[C@@H](CCC(N)=O)C(=O)N[C@@H](CCC(N)=O)C(=O)N[C@@H](Cc1c[nH]cn1)C(=O)N[C@@H](Cc1c[nH]cn1)C(=O)N[C@@H](CC(C)C)C(=O)NCC(=O)NCC(=O)N[C@@H](C)C(=O)N[C@@H](CCCCN)C(=O)N[C@@H](CCC(N)=O)C(=O)N[C@@H](C)C(=O)NCC(=O)N[C@@H](CC(=O)O)C(=O)N[C@H](C(=O)O)C(C)C)[C@@H](C)CC)[C@@H](C)O)[C@@H](C)CC` [D1 Peptide] (H-TRWYSMKKTTMKIIPFNRLTIGEGQQHHLGGAKQAGDV-OH), on thrombin fibrin monomer, the “lag time in the fibrin monomer polymerization” value is “more than 30 min”. In addition, the “number of binding sites for D1 Peptide” value in series [1] is listed as 1.91±0.24. Besides, the “elimination from the blood” value in series [2] was “rapidly eliminated”.
